Assay results as given in ChEMBL document CHEMBL4346755, “Discovery and optimization of pyridyl-cycloalkyl-carboxylic acids as inhibitors of microsomal prostaglandin E synthase-1 for the treatment of endometriosis” (Bioorg Med Chem Lett, 2019).
Activity calls are given as the source filed them. The rule behind the calls is not given here.

Assays:
[1] = biological target: T1, Prostaglandin E synthase (Homo sapiens, UniProt O14684); test: Inhibition of human recombinant FLAG-tagged PTGES expressed in baculovirus infected Hi-5 insect cells using prostaglandin H2 as substrate preincubated for 20 mins followed by substrate addition and incubated for 60 sec by TR-FRET assay
T1 sequence (O14684 whole entry): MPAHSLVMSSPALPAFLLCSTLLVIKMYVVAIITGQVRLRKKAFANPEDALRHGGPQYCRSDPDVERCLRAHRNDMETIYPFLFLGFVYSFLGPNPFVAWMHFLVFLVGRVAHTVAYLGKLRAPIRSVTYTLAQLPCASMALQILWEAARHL

[2] = Inhibition of rat recombinant FLAG-tagged PTGES expressed in baculovirus infected Hi-5 insect cells using prostaglandin H2 as substrate incubated for 20 mins followed by substrate addition and incubated for 60 sec by TR-FRET assay
[3] = biological target: T2, Prostaglandin E synthase (Mus musculus, UniProt Q9JM51); test: Inhibition of mouse recombinant FLAG-tagged PTGES expressed in baculovirus infected Hi-5 insect cells using prostaglandin H2 as substrate incubated for 20 mins followed by substrate addition and incubated for 60 sec by TR-FRET assay
T2 sequence (Q9JM51 whole entry): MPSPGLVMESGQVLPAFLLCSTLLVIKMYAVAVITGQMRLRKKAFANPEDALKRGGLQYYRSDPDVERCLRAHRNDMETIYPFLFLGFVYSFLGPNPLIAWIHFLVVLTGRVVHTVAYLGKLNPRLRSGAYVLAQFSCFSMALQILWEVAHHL

[4] = system: Rattus norvegicus; test: Antihyperalgesia activity in Sprague-Dawley rat endometriosis model assessed as viscero-motor response at 75 mg/kg, po bid administered for 3 to 5 weeks of post surgery by EMG method; type: functional, organism-based
[5] = system: Rattus norvegicus; test: Antihyperalgesia activity in Sprague-Dawley rat endometriosis model assessed as decrease in proliferation of lesions by measuring expression of Ki67 at 75 mg/kg, po bid administered for 3 to 5 weeks of post surgery by RT-PCR analysis; type: functional, organism-based
[6] = Hepatic extraction ratio in Han Wistar rat liver microsomes at 1 uM measured upto 90 mins by LC-MS/MS; type: ADME, Microsome; settings: read-out: ERH
[7] = Apparent permeability across apical to basolateral side in human Caco2 cells measured at 2 uM incubated for 2 hrs by LC/MS/MS analysis; type: ADME, cell-based; settings: Caco-2
[8] = Efflux ratio of apparent permeability from basolateral to apical over apical to basolateral side in human Caco2 cells at 2 uM incubated for 2 hrs by LC/MS/MS analysis; type: ADME, cell-based; settings: Caco-2
[9] = Oral bioavailability in Wistar rat at 0.5 to 1 mg/kg measured upto 24 hrs by LC-MS/MS; type: ADME, organism-based; settings: in vivo
[10] = Total blood clearance in Wistar rat blood at 0.5 to 1 mg/kg, […] 0.5 to 10 mg/kg, ig measured upto 24 hrs by LC-MS/MS; type: ADME, organism-based; settings: whole blood
[11] = Volume of distribution at steady state in Wistar rat blood at 0.5 to 1 mg/kg, […] 0.5 to 10 mg/kg, ig measured upto 24 hrs by LC-MS/MS; type: ADME, organism-based; settings: in vivo
[12] = Half life in Wistar rat blood at 0.5 to 1 mg/kg, […] 0.5 to 10 mg/kg, ig LC-MS/MS; type: ADME, organism-based; settings: whole blood
[13] = system: Mus musculus; test: Antinociceptive activity in C57BL/6 mouse model of complete Freund's adjuvant-induced inflammatory pain assessed as reduction in pain-related behavior at 30 to 100 mg/kg, po administered after 2 days of CFA induction and measured after 1 hr by using Plexiglas chamber; type: functional, organism-based
[14] = system: Mus musculus; test: Antinociceptive activity in C57BL/6 mouse model of complete Freund's adjuvant-induced inflammatory pain assessed as inhibition of PGE2 production at 30 to 100 mg/kg, po administered after 2 days of CFA induction and measured after 1 hr by ELISA; type: functional, organism-based
[15] = Ratio of unbound drug level in CFA-induced mouse to IC50 for mouse recombinant FLAG-tagged PTGES inhibition; type: ADME; settings: in vivo
[16] = system: Rattus norvegicus; test: Antihyperalgesia activity in Sprague-Dawley rat endometriosis model assessed as viscero-motor response at 75 mg/kg, po bid administered for 3 to 5 weeks of post surgery and measured after 1 week by EMG method; type: functional, organism-based
[17] = system: Mus musculus; test: Antinociceptive activity in C57BL/6 mouse model of complete Freund's adjuvant-induced inflammatory pain assessed as inhibition of PGE2 production at 100 mg/kg, po administered after 2 days of CFA induction and measured after 1 hr by ELISA; type: functional, organism-based
[18] = Selectivity ratio of IC50 for mouse recombinant FLAG-tagged PTGES to human recombinant FLAG-tagged PTGES expressed in baculovirus infected Hi-5 insect cells using prostaglandin H2 as substrate preincubated for 20 mins followed by substrate addition and incubated for 60 sec by TR-FRET assay

In the case of `O=C(O)CCc1ccc(NC(=O)C(c2ccc(-c3cncc(Cl)c3)cc2)C2CCCC2)cc1` (stereo not given), the IC50 [1] is reported as over 20 µM.

`Cc1c(NC(=O)[C@@H](c2ccc(-c3cncc(Cl)c3)cc2)C2CCCC2)cccc1[C@H](C)CC(=O)O` showed an IC50 [2] of 0.895 µM and an IC50 [3] of 0.339 µM.

For `Cc1c(NC(=O)[C@H](c2ccc(-c3cncc(Cl)c3)cc2)C2CCCC2)cccc1[C@@H](C)CC(=O)O`, the IC50 [2] was 17.7 µM and the IC50 [3] was 12.6 µM.

Work on `Cc1c(NC(=O)[C@@H](c2ccc(-c3cncc(Cl)c3)cc2)C2CCCC2)cccc1[C@@H](C)CC(=O)O` yielded an IC50 [2] of 1.36 µM and an IC50 [3] of 0.584 µM.

`Cc1c(CCC(=O)O)cccc1NC(=O)C(c1ccc(-c2cncc(Cl)c2)cc1)C1CCN(C)C1=O` (stereo not given) showed an IC50 [1] of over 20 µM.

For `Cc1c(CCC(=O)O)cccc1NC(=O)[C@@H](c1ccc(-c2cncc(Cl)c2)cc1)C1CCCC1`, the Activity [4] was “Active”, the Activity [5] was “Active” and the hepatic extraction ratio at […], 1 µM [6] was 0.02. For the same molecule, the Papp A→B at 2 h, 2 µM [7] was 6.9 ×10⁻⁶ cm/s, the efflux ratio at 2 h, 2 µM [8] was 2.9 and the bioavailability [9] was 98%. The IC50 [2] was 1.27 µM, the IC50 [3] was 0.765 µM and the CL/F [10] was 5 mL/min/kg. The Vdss [11] was 0.9 L/kg, the half-life [12] was 4.3 h and the Activity [13] was “Active”. For the same molecule, the Activity [14] was “Active”, the Ratio [15] was 3 and the Activity [16] was “Active”.

`CCc1cncc(-c2ccc(C(C(=O)Nc3cccc([C@@H](CC)CC(=O)O)c3C)C3CCCC3)cc2)c1` (stereo not given in full) gave a hepatic extraction ratio at […], 1 µM [6] of 0.44, an IC50 [2] of 0.19 µM and an IC50 [3] of 0.203 µM.

Work on `Cc1c(CCC(=O)O)cccc1NC(=O)C(c1ccc(-c2ccncc2)cc1)C1CCCC1` (stereo not given) yielded an IC50 [1] of 9.26 µM.

In the case of `Cc1c(CCC(=O)O)cccc1NC(=O)[C@@H](c1ccc(-c2cncc(Cl)c2)c(F)c1)C1CCCC1`, the Papp A→B at 2 h, 2 µM [7] is reported as 5.9 ×10⁻⁶ cm/s and the bioavailability [9] is reported as 72%.

With `Cc1c(CCC(=O)O)cccc1NC(=O)[C@@H](c1ccc(-c2cncc(C(F)(F)F)c2)cc1)C1CCCC1` the Papp A→B at 2 h, 2 µM [7] was 8 ×10⁻⁶ cm/s and the bioavailability [9] was 73%.

`Cc1c(CCC(=O)O)cccc1N(C)C(=O)C(c1ccc(-c2cncc(Cl)c2)cc1)C1CCCC1` (stereo not given) gave an IC50 [1] of over 20 µM.

For `CC(C)Cc1ccc(C(C)C(=O)O)cc1` (stereo not given), the Activity [17] was “Active”.

Molecule `Cc1ncccc1-c1ccc(C(C(=O)Nc2cccc(CCC(=O)O)c2C)C2CCCC2)cc1` (stereo not given) has an IC50 [1] of over 20 µM.

Molecule `Cc1c(CCc2nnn[nH]2)cccc1NC(=O)C(c1ccc(-c2cncc(Cl)c2)cc1)C1CCCC1` (stereo not given) has an IC50 [1] of 0.152 µM.

Work on `Cc1c(CCC(=O)O)cccc1C(=O)NC(c1ccc(-c2cncc(Cl)c2)cc1)C1CCCC1` (stereo not given) yielded an IC50 [1] of over 20 µM.

Work on `Cc1c(CCC(=O)O)cccc1NC(=O)[C@@H](c1ccc(-c2cccnc2)cc1)C1CCCC1` yielded a Papp A→B at 2 h, 2 µM [7] of 3.6 ×10⁻⁶ cm/s.

With `Cc1c(CCC(=O)O)cccc1NC(=O)C(c1ccc(-c2cncc(CC(C)C)c2)cc1)C1CCCC1` (stereo not given) the IC50 [3] was 0.191 µM.

Work on `O=C(O)CCc1cccc(NC(=O)C(c2ccc(-c3cncc(Cl)c3)cc2)C2CCCC2)c1OC(F)(F)F` (stereo not given) yielded an IC50 [1] of over 20 µM.

In the case of `Cc1c(NC(=O)[C@H](c2ccc(-c3cncc(Cl)c3)cc2)C2CCCC2)cccc1[C@H](C)CC(=O)O`, the IC50 [2] is reported as 8.46 µM and the IC50 [3] is reported as 3.08 µM.

For `Cc1ccc(-c2ccc(C(C(=O)Nc3cccc(CCC(=O)O)c3C)C3CCCC3)cc2)cn1` (stereo not given), the Ratio IC50 [18] was 5.

`Cc1c(CCC(=O)O)cccc1NC(=O)C(c1cccc(-c2ccccc2)c1)C1CCCC1` (stereo not given) showed an IC50 [1] of 5.86 µM.

Work on `Cc1c(CCC(=O)O)cccc1NC(=O)C(c1ccc(-c2cncc(Cl)c2)cn1)C1CCCC1` (stereo not given) yielded an IC50 [1] of 2.33 µM.

`Cc1c(CCC(=O)O)cccc1NC(=O)C(c1ccccc1)c1ccc(-c2cncc(Cl)c2)cc1` (stereo not given) gave an IC50 [1] of 4.49 µM.

Work on `Cc1cncc(-c2ccc(C(C(=O)Nc3cccc(CCC(=O)O)c3C)C3CCCC3)cc2)c1` (stereo not given) yielded an IC50 [2] of 2.59 µM and an IC50 [3] of 0.818 µM.

For `CC[C@@H](CC(=O)O)c1cccc(NC(=O)C(c2ccc(-c3cncc(CC(C)C)c3)cc2)C2CCCC2)c1C` (stereo not given in full), the IC50 [2] was 0.162 µM and the IC50 [3] was 0.084 µM.

With `Cc1c(CCC(=O)O)cccc1NC(=O)C(c1ccc(-c2ccccn2)cc1)C1CCCC1` (stereo not given) the IC50 [1] was over 20 µM.

`Cc1c(NC(=O)[C@@H](c2ccc(-c3cncc(Cl)c3)cc2)C2CCCC2)cccc1OCC(=O)O` gave a Papp A→B at 2 h, 2 µM [7] of 0.22 ×10⁻⁶ cm/s and a bioavailability [9] of 8%.

Work on `Cc1c(CCC(=O)O)cccc1NC(=O)C(c1ccc(-c2cccc(Cl)c2)cc1)C1CCCC1` (stereo not given) yielded an IC50 [1] of 0.276 µM.

For `Cc1c(CCC(=O)O)cccc1NC(=O)C(c1cccc(-c2cccnc2)c1)C1CCCC1` (stereo not given), the IC50 [1] was over 20 µM.

For `Cc1c(CCC(=O)O)cccc1NC(=O)C(c1ccc(-c2cncc(Cl)c2)nc1)C1CCCC1` (stereo not given), the IC50 [1] was 0.327 µM.
